# Target: T1, PD-1/PD-L1 protein/protein interaction (recombinant human PD-L1 protein (19-238), recombinant human PD-1 protein (25-167)) (Homo sapiens, UniProt Q9NZQ7)
# T1 construct: Recombinant human PD-L1 protein (19-238) with a His-tag at the C-terminus; purchased AcroBiosystems PD1-H5229 (PD-L1-His); PD1-H5257 (PD-1-Fc)
# Assay: PD-1/PD-L1 Homogeneous Time-Resolved Fluorescence (HTRF) Binding Assay
# Conditions: 25° C., PBS buffer (pH 7.4), 40 minutes preincubation with inhibitors
# Procedure: The assays were conducted in a standard black 384-well polystyrene plate with a final volume of 20 μL. Inhibitors were first serially diluted in DMSO and then added to the plate wells before the addition of other reaction components. The final concentration of DMSO in the assay was 1%. The assays were carried out at 25° C. in the PBS buffer (pH 7.4) with 0.05% Tween-20 and 0.1% BSA. Recombinant human PD-L1 protein (19-238) with a His-tag at the C-terminus was purchased from AcroBiosystems (PD1-H5229). Recombinant human PD-1 protein (25-167) with Fc tag at the C-terminus was also purchased from AcroBiosystems (PD1-H5257). PD-L1 and PD-1 proteins were diluted in the assay buffer and 10 μL was added to the plate well. Plates were centrifuged and proteins were preincubated with inhibitors for 40 minutes. The incubation was followed by the addition of 10 μL of HTRF detection buffer supplemented with Europium cryptate-labeled anti-human IgG (PerkinElmer-AD0212) specific for Fc and anti-His antibody conjugated to SureLight®-Allophycocyanin (APC, PerkinElmer-AD0059H). After centrifugation, the plate was incubated at 25° C. for 60 min. before reading on a PHERAstar FS plate reader (665 nm/620 nm ratio). Final concentrations in the assay were […], 10 nM PD-L1, 1 nM europium anti-human IgG and 20 nM anti-His-Allophycocyanin. IC50 determination was performed by fitting the curve of percent control activity versus the log of the inhibitor concentration using the GraphPad Prism 5.0 software.
# T1 sequence (Q9NZQ7 19-238): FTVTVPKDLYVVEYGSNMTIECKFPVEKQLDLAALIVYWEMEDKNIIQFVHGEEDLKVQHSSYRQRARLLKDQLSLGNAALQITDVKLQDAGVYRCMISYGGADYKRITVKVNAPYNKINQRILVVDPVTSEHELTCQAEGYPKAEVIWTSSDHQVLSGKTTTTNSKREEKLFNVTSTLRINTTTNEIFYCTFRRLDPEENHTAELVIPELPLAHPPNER
row,SMILES,IC50
1,"Cc1c(Nc2nccc3cc(CN4CC[C@H](O)C4)cnc23)cccc1-c1cccc(Nc2nccc3cc(CN4CC[C@H](C(=O)O)C4)cnc23)c1C [Example 13, (S)-1-((8-((3′-((3-(((S)-3-hydroxypyrrolidin-1-yl)methyl)-1,7-naphthyridin-8-yl)amino)-2,2′-dimethyl-[1,1′-biphenyl]-3-yl)amino)-1,7-naphthyridin-3-yl)methyl)pyrrolidine-3-carboxylic acid]",≤ 10 nM
2,"Cc1c(NC(=O)c2nc3c(n2C)CCN(C)C3)cccc1-c1cccc(Nc2nccc3cc(CN4CC(C(=O)O)C4)cnc23)c1Cl [Example 14, 1-((8-(2-chloro-3′-(1,5-dimethyl-4,5,6,7-tetrahydro-1H-imidazo[4,5-c]pyridine-2-carboxamido)-2′-methylbiphenyl-3-ylamino)-1,7-naphthyridin-3-yl)methyl)azetidine-3-carboxylic acid]",≤ 10 nM
3,"Cc1c(Nc2nccc3cc(CN4CC[C@@H](O)C4)cnc23)cccc1-c1cccc(NC(=O)c2cc(CN3CC[C@@H](C(=O)O)C3)cn(C)c2=O)c1Cl [Example 15, (R)-1-((5-(2-chloro-3′-(3-(((R)-3-hydroxypyrrolidin-1-yl)methyl)-1,7-naphthyridin-8-ylamino)-2′-methylbiphenyl-3-ylcarbamoyl)-1-methyl-6-oxo-1,6-dihydropyridin-3-yl)methyl)pyrrolidine-3-carboxylicacid]",≤ 10 nM
4,"Cn1cc(CN2CC[C@@H](O)C2)cc(C(=O)Nc2cccc(-c3cccc(Nc4nccc5cc(CN6CC(C(=O)O)C6)cnc45)c3Cl)c2Cl)c1=O [Example 16, (R)-1-((8-(2,2′-dichloro-3′-(5-((3-hydroxypyrrolidin-1-yl)methyl)-1-methyl-2-oxo-1,2-dihydropyridine-3-carboxamido)biphenyl-3-ylamino)-1,7-naphthyridin-3-yl)methyl)azetidine-3-carboxylic acid]",≤ 10 nM
5,"Cn1cc(CNCCO)cc(C(=O)Nc2cccc(-c3cccc(Nc4nccc5cc(CN6CC(C(=O)O)C6)cnc45)c3Cl)c2Cl)c1=O [Example 17, 1-((8-(2,2′-dichloro-3′-(5-((2-hydroxyethylamino)methyl)-1-methyl-2-oxo-1,2-dihydropyridine-3-carboxamido)biphenyl-3-ylamino)-1,7-naphthyridin-3-yl)methyl)azetidine-3-carboxylic acid]",≤ 10 nM
6,"Cn1cc(CNCC(C)(C)O)cc(C(=O)Nc2cccc(-c3cccc(Nc4nccc5cc(CN6CC(C(=O)O)C6)cnc45)c3Cl)c2Cl)c1=O [Example 18, 1-((8-(2,2′-dichloro-3′-(5-((2-hydroxy-2-methylpropylamino)methyl)-1-methyl-2-oxo-1,2-dihydropyridine-3-carboxamido)biphenyl-3-ylamino)-1,7-naphthyridin-3-yl)methyl)azetidine-3-carboxylicacid]",≤ 10 nM
7,"Cc1c(Nc2nccc3cc(CNCCO)cnc23)cccc1-c1cccc(Nc2nccc3cc(CNCCO)cnc23)c1C [Example 19, 2,2′-(((((2,2′-dimethyl-[1,1′-biphenyl]-3,3′-diyl)bis(azanediyl))bis(1,7-naphthyridine-8,3-diyl))bis(methylene))bis(azanediyl))bis(ethan-1-ol)]",≤ 10 nM
8,"Cc1c(Nc2nccc3cc(CN4CC[C@@H](O)C4)cnc23)cccc1-c1cccc(Nc2nccc3cc(CN4CC[C@@H](O)C4)cnc23)c1C [Example 20, (3R,3′R)-1,1′-((((2,2′-dimethyl-[1,1′-biphenyl]-3,3′-diyl)bis(azanediyl))bis(1,7-naphthyridine-8,3-diyl))bis(methylene))bis(pyrrolidin-3-ol)]",≤ 10 nM
9,"Cc1c(Nc2nccc3cc(CNCCO)cnc23)cccc1-c1cccc(Nc2nccc3cc(CN4CC[C@@H](O)C4)cnc23)c1C [Example 21, (R)-1-((8-(3′-(3-((2-hydroxyethylamino)methyl)-1,7-naphthyridin-8-ylamino)-2,2′-dimethylbiphenyl-3-ylamino)-1,7-naphthyridin-3-yl)methyl)pyrrolidin-3-ol]",≤ 10 nM
10,"O[C@@H]1CCN(Cc2cnc3c(Nc4cccc(-c5cccc(Nc6nccc7cc(CN8CC[C@@H](O)C8)cnc67)c5Cl)c4Cl)nccc3c2)C1 [Example 22, (3R,3′R)-1,1′-((((2,2′-dichloro-[1,1′-biphenyl]-3,3′-diyl)bis(azanediyl))bis(1,7-naphthyridine-8,3-diyl))bis(methylene))bis(pyrrolidin-3-ol)]",≤ 10 nM
11,"Cc1c(Nc2nccc3cc(CN4CC[C@@H](O)C4)cnc23)cccc1-c1cccc(Nc2ncnc3cc(CN4CC[C@@H](O)C4)cnc23)c1C [Example 23, (R)-1-((4-(3′-(3-(((R)-3-hydroxypyrrolidin-1-yl)methyl)-1,7-naphthyridin-8-ylamino)-2,2′-dimethylbiphenyl-3-ylamino)pyrido[3,2-d]pyrimidin-7-yl)methyl)pyrrolidin-3-ol]",≤ 10 nM
12,"Cc1c(Nc2nccc3cc(CN4CC[C@@H](O)C4)cnc23)cccc1-c1cccc(Nc2ncnc3cc(CNCCO)cnc23)c1C [Example 24, (R)-1-((8-(3′-(7-((2-hydroxyethylamino)methyl)pyrido[3,2-d]pyrimidin-4-ylamino)-2,2′-dimethylbiphenyl-3-ylamino)-1,7-naphthyridin-3-yl)methyl)pyrrolidin-3-ol]",≤ 10 nM
13,"Cc1c(Nc2nccc3cc(CN4CC[C@@H](O)C4)cnc23)cccc1-c1cccc(Nc2ncnc3cc(CN(C)CCO)cnc23)c1C [Example 25, (R)-1-((8-(3′-(7-(((2-hydroxyethyl)(methyl)amino)methyl)pyrido[3,2-d]pyrimidin-4-ylamino)-2,2′-dimethylbiphenyl-3-ylamino)-1,7-naphthyridin-3-yl)methyl)pyrrolidin-3-ol]",≤ 10 nM
14,"Cc1c(Nc2nccc3cc(CN4CC[C@@H](O)C4)cnc23)cccc1-c1cccc(Nc2nccc3cc(CN4CC[C@@H](C(=O)N(C)C)C4)cnc23)c1C [Example 26, (R)-1-((8-(3′-(3-(((R)-3-hydroxypyrrolidin-1-yl)methyl)-1,7-naphthyridin-8-ylamino)-2,2′-dimethylbiphenyl-3-ylamino)-1,7-naphthyridin-3-yl)methyl)-N,N-dimethylpyrrolidine-3-carboxamide]",≤ 10 nM
15,"Cc1c(Nc2nccc3cc(CN4CC[C@@H](O)C4)cnc23)cccc1-c1cccc(Nc2ncnc3cc(CNC[C@H](C)O)cnc23)c1C [Example 27, (R)-1-((8-(3′-(7-(((S)-2-hydroxypropylamino)methyl)pyrido[3,2-d]pyrimidin-4-ylamino)-2,2′-dimethylbiphenyl-3-ylamino)-1,7-naphthyridin-3-yl)methyl)pyrrolidin-3-ol]",≤ 10 nM
16,"Cc1c(NC(=O)c2cc(CN3CC[C@@H](O)C3)cn(C)c2=O)cccc1-c1cccc(Nc2nccc3cc(CN4CC[C@@H](C(=O)O)C4)cnc23)c1C [Example 28, (R)-1-((8-(3′-(5-(((R)-3-hydroxypyrrolidin-1-yl)methyl)-1-methyl-2-oxo-1,2-dihydropyridine-3-carboxamido)-2,2′-dimethylbiphenyl-3-ylamino)-1,7-naphthyridin-3-yl)methyl)pyrrolidine-3-carboxylic acid]",≤ 10 nM
17,"Cc1c(Nc2nccc3cc(CN4CC[C@@H](O)C4)cnc23)cccc1-c1cccc(Nc2ncnc3cc(CNC[C@@H](C)O)cnc23)c1C [Example 29, (R)-1-((8-(3′-(7-(((R)-2-hydroxypropylamino)methyl)pyrido[3,2-d]pyrimidin-4-ylamino)-2,2′-dimethylbiphenyl-3-ylamino)-1,7-naphthyridin-3-yl)methyl)pyrrolidin-3-ol]",≤ 10 nM

# — patent US12466822B2, “Heterocyclic compounds as immunomodulators” (Incyte Corporation, priority 2016, dated 2025)
